Data on 32 compounds can be found in ChEMBL document CHEMBL1157454, “Citral derived amides as potent bacterial NorA efflux pump inhibitors” (2008).

The subject of experiment [1] is Staphylococcus aureus. Briefly: Antimicrobial activity against Staphylococcus aureus 1199 at 100 ug/ml after 18 hrs by twofold serial dilution method. Type of experiment: functional, organism-based.
In experiment [2] the target is T1, Quinolone resistance protein NorA (Staphylococcus aureus) (UniProt P0A0J7).
T1 sequence (whole entry): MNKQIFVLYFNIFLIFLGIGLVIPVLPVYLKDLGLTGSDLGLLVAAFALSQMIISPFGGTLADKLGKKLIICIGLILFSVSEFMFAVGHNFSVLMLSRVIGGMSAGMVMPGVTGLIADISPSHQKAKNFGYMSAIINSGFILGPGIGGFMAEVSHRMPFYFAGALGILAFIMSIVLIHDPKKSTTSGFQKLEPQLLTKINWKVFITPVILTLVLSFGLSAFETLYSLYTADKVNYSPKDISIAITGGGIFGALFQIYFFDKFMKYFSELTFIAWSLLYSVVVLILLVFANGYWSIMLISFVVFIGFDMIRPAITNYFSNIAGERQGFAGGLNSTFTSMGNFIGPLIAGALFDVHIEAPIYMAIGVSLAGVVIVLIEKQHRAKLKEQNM
Briefly: Inhibition of NorA efflux pump in Staphylococcus aureus 1199B assessed as fold reduction of ciprofloxacin MIC at 12.5 ug/ml.

Experiment [3] deals with Staphylococcus aureus. The experiment is described as follows: Antimicrobial activity against NorA overexpressing Staphylococcus aureus 1199B at 100 ug/ml after 18 hrs by twofold serial dilution method. Type of experiment: functional, organism-based.
Experiment [4] has as its target T1, Quinolone resistance protein NorA (Staphylococcus aureus). The experiment is described as follows: Inhibition of NorA efflux pump in Staphylococcus aureus 1199B assessed as fold reduction of ciprofloxacin MIC at 25 ug/ml.
The target is the same in experiment [5]. Briefly: Inhibition of NorA efflux pump in Staphylococcus aureus 1199 assessed as fold reduction of ciprofloxacin MIC at 25 ug/ml.
Experiment [6] has the same target. Particulars: 1199B.
Experiment [7] has the same target.
The target is the same in experiment [8]. Briefly: Inhibition of NorA efflux pump in Staphylococcus aureus 1199 assessed as fold reduction of ciprofloxacin MIC at 12.5 ug/ml.
For experiment [9] the target is unchanged. The experiment is described as follows: Inhibition of NorA efflux pump in Staphylococcus aureus 1199 assessed as fold reduction of ciprofloxacin MIC at 6.25 ug/ml.
For experiment [10] the target is unchanged. The experiment is described as follows: Inhibition of NorA efflux pump in Staphylococcus aureus 1199B assessed as fold reduction of ciprofloxacin MIC at 6.25 ug/ml.

≈ marks a conversion by molar mass, not a printed value. Calls of active or inactive are those of the source. The rule behind the calls is not given here.

For the compound `COc1ccccc1NC(=O)/C=C/CC(C)CCC=C(C)C` (stereo not given), the outcome with Staphylococcus aureus [1] and with Staphylococcus aureus [3] was inactive. Also, the fold reduction in experiment [2] was 2.

On to `CC(C)=CCC/C(C)=C/C=C/C(=O)N(C(C)C)C(C)C`, for which the outcome with Staphylococcus aureus [1] and in the experiment with Staphylococcus aureus [3] was inactive. The fold reduction came to 4 in [4] and 2 in experiment [5].

Turning to `CC(C)=CCCC(C)C/C=C/C(=O)NCc1ccccc1` (stereo not given), the outcome with Staphylococcus aureus [1] and in the experiment with Staphylococcus aureus [3] was inactive. Moreover, the MIC in experiment [6] and in experiment [7] was 4 µg/mL (≈ 14 µM) in each case.

Consider `CC(C)=CCC/C(C)=C/C=C/C(=O)N1CCOCC1`, for which the result with Staphylococcus aureus [1] and in the experiment with Staphylococcus aureus [3] was inactive.

Take `C/C(C=O)=C\CC/C(C)=C/C=C/C(=O)NCc1ccccc1`: the result in the experiment on Staphylococcus aureus [1] and in the experiment on Staphylococcus aureus [3] was inactive. Further, the fold reduction was 4 in experiment [4], 2 in experiment [5] and 2 in experiment [2].

On to `CCCCCCCCNC(=O)/C=C/C=C(\C)CC/C=C(\C)C=O`, for which the result in the experiment on Staphylococcus aureus [1] and with Staphylococcus aureus [3] was inactive. Also, the fold reduction in experiment [8] came out at 2; in [4], 4; in experiment [5] it was 2; in experiment [2] it was 2.

`CCCCCCCCNC(=O)/C=C/CC(C)CC/C=C(\C)C=O` (stereo not given): the result in the experiment on Staphylococcus aureus [1] and with Staphylococcus aureus [3] was inactive. Moreover, in experiment [4], the fold reduction was 4.

Turning to `CC(C)=CCC/C(C)=C/C=C/C(=O)N1CCCCC1`, the outcome in the experiment on Staphylococcus aureus [1] and with Staphylococcus aureus [3] was inactive. In addition, the fold reduction in experiment [8] and in experiment [2] was 2 in each case.

For the compound `COc1ccccc1NC(=O)CCCC(C)CCC=C(C)C` (stereo not given), the outcome in the experiment on Staphylococcus aureus [1] and in the experiment on Staphylococcus aureus [3] was inactive.

For the compound `C/C(C=O)=C\CC/C(C)=C/C=C/C(=O)N(C(C)C)C(C)C`, the outcome in the experiment on Staphylococcus aureus [1] and in the experiment on Staphylococcus aureus [3] was inactive. For the same compound, the fold reduction is 4 in experiment [4] and 2 in experiment [2].

As to `CC(C)=CCC/C(C)=C/C=C/C(=O)N1CCCC1`, the outcome in the experiment with Staphylococcus aureus [1] and in the experiment on Staphylococcus aureus [3] was inactive.

For the compound `COC(=O)[C@H]1[C@H]2C[C@@H]3c4[nH]c5cc(OC)ccc5c4CCN3C[C@H]2C[C@@H](OC(=O)c2cc(OC)c(OC)c(OC)c2)[C@@H]1OC`, the results for the fold reduction in experiment [4] and in experiment [5] were 4 and 2, respectively.

In the case of `C/C(C=O)=C\CC/C(C)=C/C=C/C(=O)N1CCOCC1`, the result in the experiment with Staphylococcus aureus [1] and in the experiment on Staphylococcus aureus [3] was inactive.

Consider `COc1ccccc1NC(=O)/C=C/C=C(\C)CCC=C(C)C`, for which the result in the experiment with Staphylococcus aureus [1] and in the experiment on Staphylococcus aureus [3] was inactive. Further, the fold reduction in experiment [4] is 4; in experiment [5] it was 2.

On to `CC(C)=CCC/C(C)=C/C=C/C(=O)Nc1ccccc1C`, for which the outcome in the experiment on Staphylococcus aureus [1] and with Staphylococcus aureus [3] was inactive.

Regarding `C/C(C=O)=C\CCC(C)CCCC(=O)N1CCCCC1` (stereo not given), the result with Staphylococcus aureus [1] and with Staphylococcus aureus [3] was inactive.

Regarding `C/C(C=O)=C\CC/C(C)=C/C=C/C(=O)N1CCCCC1`, the outcome in the experiment with Staphylococcus aureus [1] and in the experiment on Staphylococcus aureus [3] was inactive. Also, the fold reduction is 2 in experiment [9], 2 in [10] and 4 in experiment [4].

`CC(C)c1cc2c(c(O)c1O)[C@@]1(C(=O)O)CCCC(C)(C)[C@@H]1CC2`: the fold reduction in [4] and in experiment [5] was 2 each time.

Consider `CC(C)=CCC/C(C)=C/C=C/C(=O)O`, for which the outcome in the experiment with Staphylococcus aureus [1] and with Staphylococcus aureus [3] was inactive.

For `CC(C)=CCCC(C)C/C=C/C(=O)N1CCCCC1` (stereo not given), the outcome with Staphylococcus aureus [1] and in the experiment on Staphylococcus aureus [3] was inactive. Further, the fold reduction in experiment [2] came out at 2.

Take `C/C(C=O)=C\CCC(C)CCCC(=O)NCc1ccccc1` (stereo not given): the outcome with Staphylococcus aureus [1] and in the experiment with Staphylococcus aureus [3] was inactive.

Take `CC(C)=CCC/C(C)=C/C=C/C(=O)NC(C)C`: the outcome in the experiment on Staphylococcus aureus [1] and in the experiment on Staphylococcus aureus [3] was inactive.

For `CCCCCCCCNC(=O)CCCC(C)CCC=C(C)C` (stereo not given), the result in the experiment on Staphylococcus aureus [1] and in the experiment with Staphylococcus aureus [3] was inactive.

In the case of `CCCCCCCCNC(=O)/C=C/C=C(\C)CCC=C(C)C`, the result in the experiment with Staphylococcus aureus [1] and in the experiment with Staphylococcus aureus [3] was inactive. In addition, the fold reduction came out at 2 in [8], 4 in experiment [4], 4 in experiment [5] and 2 in experiment [2].

Take `CC(C)=CCC/C(C)=C/C=C/C(=O)NCC(C)C`: the outcome with Staphylococcus aureus [1] and in the experiment on Staphylococcus aureus [3] was inactive.

In the case of `COc1ccc(NC(=O)/C=C/C=C(\C)CCC=C(C)C)cc1`, the outcome in the experiment with Staphylococcus aureus [1] and in the experiment with Staphylococcus aureus [3] was inactive.

For `CC(C)=CCC/C(C)=C/C=C/C(=O)NCc1ccccc1`, the outcome in the experiment on Staphylococcus aureus [1] and with Staphylococcus aureus [3] was inactive. Also, the fold reduction in experiment [4] was 4; in experiment [5], 2; in experiment [2] it was 2.

With `CC(C)=CCC/C(C)=C/C=C/C(=O)Nc1ccccc1`, the outcome in the experiment on Staphylococcus aureus [1] and with Staphylococcus aureus [3] was inactive.

On to `O=C(/C=C/C=C/c1ccc2c(c1)OCO2)N1CCCCC1`, for which the MIC in experiment [6] and in experiment [7] was 2 µg/mL (≈ 7.01 µM) each time.

With `C/C(C=O)=C\CC/C(C)=C/C=C/C(=O)N1CCCC1`, the result in the experiment with Staphylococcus aureus [1] and in the experiment on Staphylococcus aureus [3] was inactive.

On to `COc1ccccc1NC(=O)/C=C/CC(C)CC/C=C(\C)C=O` (stereo not given), for which the result in the experiment with Staphylococcus aureus [1] and in the experiment on Staphylococcus aureus [3] was inactive. For the same compound, the fold reduction in experiment [4] came to 4.

`CCCCCCCCNC(=O)/C=C/CC(C)CCC=C(C)C` (stereo not given): the result in the experiment on Staphylococcus aureus [1] and in the experiment with Staphylococcus aureus [3] was inactive.
